Assay results published in patent publication US8163742B2, “Di-amino-substituted heterocyclic compounds and methods of use” (Amgen Inc., priority 2006, dated 2012).

Tested on: SCF-stimulated UT-7 cells
Assay: SCF stimulated UT7 proliferation/survival assay
Assay type: cell-based
Conditions: Homo sapiens, average value
Description: SCF and GM-CSF Stimulated UT7 Proliferation/Survival Assay:
The purpose of this assay is to test the general anti-proliferative/cytotoxic effect of small molecule compounds on SCF or GM-CSF-stimulated UT-7 cells. Preventing SCF stimulated proliferation/survival is consistent with an on-mechanism effect whereas inhibition of GM-CSF driven proliferation/survival is indicative of off-target effects. UT-7 is a factor dependent human megakaryoblastic leukemia cell line that can be grown in either IL-3, GM-CSF, EPO or SCF (these cells have been confirmed to carry wild type c-kit receptor). Cells are maintained in growth media (IMDM, 10% HI-FBS, 1×PGS, 1 ng/mL GM-CSF). […] The amount of ATP is then measured as a surrogate marker for cell viability. This is accomplished by adding 50 μL of Perkin Elmer ATP 1 step reagent (as per instructed in the reagent manual, Cat. No. 6016739), incubating at RT for 15 min and reading the luminescence with a Perkin Elmer Topcount NXT™HTS (model c384) plate reader. The amount of SCF or GM-CSF stimulated viable cells in the presence of compound compared with in the presence of vehicle alone (HI control) is calculated using the formula: % control (POC)=(cpd−average LO)/(average HI−average LO)*100. […]

Question: With `FC(F)(F)c1cccc(Nc2noc3c(Nc4nccc(-c5cccnc5)n4)c(Cl)ccc23)c1` [Example 1, 6-chloro-N-7-(4-(pyridin-3-yl)pyrimidin-2-yl)-N3-(3-(trifluoromethyl)phenyl)benzo[d]isoxazole-3,7-diamine] as the molecule, how does the IC50 read?
Answer: ~44 nM
